Source: ChEMBL document CHEMBL2074299, “Hepatic uptake of the novel antifungal agent caspofungin” (Drug Metab Dispos, 2005)

Key:
Assay type in all cases: functional, cell-based
[1] = molecular target: T1, OATP1B1 (solute carrier organic anion transporter family member 1B1) (Homo sapiens, UniProt Q9Y6L6); assay: TP_TRANSPORTER: inhibition of estradiol-17beta-D-glucuronide uptake (Lovastatin:10 uM) in OATP1B1-expressing HeLa cells; parameters: scale not given: the % may be the effect or the level left; conditions: HeLa cells that express OATP1B1, probe estradiol-17beta-D-glucuronide, read-out: Activity
T1 sequence (Q9Y6L6 whole entry): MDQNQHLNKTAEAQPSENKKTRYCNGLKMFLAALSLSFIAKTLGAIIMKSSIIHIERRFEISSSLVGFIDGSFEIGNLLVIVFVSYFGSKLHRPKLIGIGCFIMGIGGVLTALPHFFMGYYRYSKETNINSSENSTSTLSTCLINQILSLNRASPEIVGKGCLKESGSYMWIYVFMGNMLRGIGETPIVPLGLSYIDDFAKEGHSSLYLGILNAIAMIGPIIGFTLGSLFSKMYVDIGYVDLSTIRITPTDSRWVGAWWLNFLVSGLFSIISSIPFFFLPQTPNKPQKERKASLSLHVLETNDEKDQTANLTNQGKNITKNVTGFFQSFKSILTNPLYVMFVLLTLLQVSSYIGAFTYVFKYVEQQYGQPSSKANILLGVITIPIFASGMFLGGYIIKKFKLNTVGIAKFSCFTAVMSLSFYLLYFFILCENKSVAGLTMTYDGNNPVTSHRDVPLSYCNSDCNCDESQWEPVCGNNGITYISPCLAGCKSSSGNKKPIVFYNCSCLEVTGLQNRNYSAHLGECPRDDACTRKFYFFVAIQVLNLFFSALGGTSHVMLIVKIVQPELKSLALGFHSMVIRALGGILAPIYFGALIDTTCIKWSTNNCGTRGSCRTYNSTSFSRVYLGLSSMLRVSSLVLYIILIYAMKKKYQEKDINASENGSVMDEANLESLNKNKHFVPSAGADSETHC

[2] = molecular target: T2, Solute carrier family 22 member 6 (Homo sapiens, UniProt Q4U2R8); assay: TP_TRANSPORTER: inhibition of p-amino hippurate uptake (Indomethacin:100 uM) in OAT1-expressing HeLa cells; parameters: scale not given: the % may be the effect or the level left
T2 sequence (Q4U2R8 whole entry): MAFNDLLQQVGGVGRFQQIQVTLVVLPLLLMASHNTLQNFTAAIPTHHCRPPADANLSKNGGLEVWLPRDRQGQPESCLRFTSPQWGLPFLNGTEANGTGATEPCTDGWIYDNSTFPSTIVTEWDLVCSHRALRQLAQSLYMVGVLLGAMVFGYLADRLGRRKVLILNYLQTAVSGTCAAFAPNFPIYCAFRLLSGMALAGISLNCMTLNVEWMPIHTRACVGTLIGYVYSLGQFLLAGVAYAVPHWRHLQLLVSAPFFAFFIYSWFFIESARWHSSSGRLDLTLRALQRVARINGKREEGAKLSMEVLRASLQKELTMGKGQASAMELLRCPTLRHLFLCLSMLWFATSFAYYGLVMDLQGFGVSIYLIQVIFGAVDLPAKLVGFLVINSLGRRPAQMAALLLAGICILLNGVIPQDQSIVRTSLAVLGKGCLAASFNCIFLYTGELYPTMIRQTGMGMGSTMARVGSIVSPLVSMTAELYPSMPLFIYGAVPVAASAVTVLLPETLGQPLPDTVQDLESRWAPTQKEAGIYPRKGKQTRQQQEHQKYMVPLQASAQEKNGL

[3] = molecular target: ATP-dependent translocase ABCB1 (Homo sapiens, UniProt P08183); assay: TP_TRANSPORTER: cell accumulation of vinblastine in KB-V1 cells
ATP-dependent translocase ABCB1, sequence (P08183 whole entry): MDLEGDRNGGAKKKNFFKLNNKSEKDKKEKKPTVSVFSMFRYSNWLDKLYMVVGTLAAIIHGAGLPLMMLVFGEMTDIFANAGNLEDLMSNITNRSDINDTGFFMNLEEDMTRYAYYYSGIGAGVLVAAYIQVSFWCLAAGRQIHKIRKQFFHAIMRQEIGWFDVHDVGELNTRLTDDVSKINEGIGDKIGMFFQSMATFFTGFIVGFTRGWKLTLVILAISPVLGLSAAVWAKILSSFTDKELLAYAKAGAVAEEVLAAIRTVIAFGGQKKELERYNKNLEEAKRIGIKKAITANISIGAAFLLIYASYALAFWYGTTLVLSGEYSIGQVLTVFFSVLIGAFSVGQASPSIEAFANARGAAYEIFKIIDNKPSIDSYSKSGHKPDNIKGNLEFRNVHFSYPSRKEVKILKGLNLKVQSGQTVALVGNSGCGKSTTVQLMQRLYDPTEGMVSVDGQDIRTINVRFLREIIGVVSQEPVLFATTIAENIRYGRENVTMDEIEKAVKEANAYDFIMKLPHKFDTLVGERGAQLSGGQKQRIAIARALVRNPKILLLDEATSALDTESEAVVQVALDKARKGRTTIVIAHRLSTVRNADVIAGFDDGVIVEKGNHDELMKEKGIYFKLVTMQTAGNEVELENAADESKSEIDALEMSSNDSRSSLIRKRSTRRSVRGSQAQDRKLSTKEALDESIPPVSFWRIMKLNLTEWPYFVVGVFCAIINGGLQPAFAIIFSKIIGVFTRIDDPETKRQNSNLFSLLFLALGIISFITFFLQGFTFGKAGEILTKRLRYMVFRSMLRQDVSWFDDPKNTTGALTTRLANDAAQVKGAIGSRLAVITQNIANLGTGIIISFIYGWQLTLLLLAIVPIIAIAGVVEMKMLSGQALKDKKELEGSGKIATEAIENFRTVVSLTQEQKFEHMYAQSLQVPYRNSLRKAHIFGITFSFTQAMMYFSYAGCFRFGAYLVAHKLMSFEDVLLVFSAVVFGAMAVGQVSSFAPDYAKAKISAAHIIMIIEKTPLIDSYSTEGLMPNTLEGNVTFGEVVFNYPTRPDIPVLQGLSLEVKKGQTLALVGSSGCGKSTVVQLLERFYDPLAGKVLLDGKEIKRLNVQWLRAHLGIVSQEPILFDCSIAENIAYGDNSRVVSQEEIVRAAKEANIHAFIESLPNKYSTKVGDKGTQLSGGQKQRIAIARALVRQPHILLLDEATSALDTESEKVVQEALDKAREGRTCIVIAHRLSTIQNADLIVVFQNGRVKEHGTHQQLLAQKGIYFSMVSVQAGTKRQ

[4] = molecular target: T3, OCT1 (solute carrier family 22 member 1) (Homo sapiens, UniProt O15245); assay: TP_TRANSPORTER: inhibition of Tetraethyl ammonium uptake (Caspofungin:100 uM) in OCT1-expressing HeLa cells; parameters: scale not given: the % may be the effect or the level left; conditions: HeLa cells that express OCT1, probe tetraethyl ammonium, read-out: Activity
T3 sequence (O15245 whole entry): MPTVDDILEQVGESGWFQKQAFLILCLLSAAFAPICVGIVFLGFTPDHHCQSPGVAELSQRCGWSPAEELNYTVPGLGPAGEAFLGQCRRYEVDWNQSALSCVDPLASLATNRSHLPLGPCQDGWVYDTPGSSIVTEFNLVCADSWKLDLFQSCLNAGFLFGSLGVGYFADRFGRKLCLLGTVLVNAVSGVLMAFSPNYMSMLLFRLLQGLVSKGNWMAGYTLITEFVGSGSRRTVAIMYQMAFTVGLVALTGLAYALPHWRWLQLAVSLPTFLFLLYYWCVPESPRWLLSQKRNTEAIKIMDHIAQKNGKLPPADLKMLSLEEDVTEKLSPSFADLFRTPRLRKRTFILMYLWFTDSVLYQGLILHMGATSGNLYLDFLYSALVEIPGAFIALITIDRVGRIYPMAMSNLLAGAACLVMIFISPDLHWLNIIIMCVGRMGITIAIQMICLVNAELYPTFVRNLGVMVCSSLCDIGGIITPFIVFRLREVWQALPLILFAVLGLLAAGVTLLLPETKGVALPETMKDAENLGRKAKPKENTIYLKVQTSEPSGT

[5] = molecular target: T2, Solute carrier family 22 member 6; assay: TP_TRANSPORTER: inhibition of p-amino hippurate uptake (Caspofungin:100 uM) in OAT1-expressing HeLa cells; parameters: scale not given: the % may be the effect or the level left
[6] = molecular target: T4, Solute carrier organic anion transporter family member 1B1 (Homo sapiens, UniProt Q9Y6L6); assay: TP_TRANSPORTER: uptake in OATP1B1-expressing Tet-on HeLa cells
T4 sequence (Q9Y6L6 whole entry): T1 sequence (Q9Y6L6 whole entry)

[7] = molecular target: T4, Solute carrier organic anion transporter family member 1B1; assay: TP_TRANSPORTER: inhibition of estradiol-17beta-D-glucuronide uptake (Caspofungin:100 uM) in OATP1B1-expressing HeLa cells; parameters: scale not given: the % may be the effect or the level left
[8] = molecular target: T5, NTCP (hepatic sodium/bile acid cotransporter) (Homo sapiens, UniProt Q14973); assay: TP_TRANSPORTER: inhibition of Taurocholate uptake (Caspofungin:100 uM) in NTCP-expressing HeLa cells; parameters: scale not given: the % may be the effect or the level left; conditions: HeLa cells that express NTCP, probe taurocholate, read-out: Activity
T5 sequence (Q14973 whole entry): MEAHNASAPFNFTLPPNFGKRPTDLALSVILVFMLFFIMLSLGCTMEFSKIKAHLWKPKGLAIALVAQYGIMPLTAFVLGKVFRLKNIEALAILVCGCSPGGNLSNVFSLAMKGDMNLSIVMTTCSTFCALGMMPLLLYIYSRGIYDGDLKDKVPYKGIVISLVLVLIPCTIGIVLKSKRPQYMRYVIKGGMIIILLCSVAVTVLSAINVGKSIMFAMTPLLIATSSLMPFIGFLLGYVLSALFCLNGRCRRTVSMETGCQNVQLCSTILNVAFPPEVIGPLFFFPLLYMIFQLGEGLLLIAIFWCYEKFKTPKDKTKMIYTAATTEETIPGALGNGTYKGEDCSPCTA

[9] = molecular target: T6, Solute carrier organic anion transporter family member 1B3 (Homo sapiens, UniProt Q9NPD5); assay: TP_TRANSPORTER: uptake in OATP1B3-expressing Tet-on HeLa cells
T6 sequence (Q9NPD5 whole entry): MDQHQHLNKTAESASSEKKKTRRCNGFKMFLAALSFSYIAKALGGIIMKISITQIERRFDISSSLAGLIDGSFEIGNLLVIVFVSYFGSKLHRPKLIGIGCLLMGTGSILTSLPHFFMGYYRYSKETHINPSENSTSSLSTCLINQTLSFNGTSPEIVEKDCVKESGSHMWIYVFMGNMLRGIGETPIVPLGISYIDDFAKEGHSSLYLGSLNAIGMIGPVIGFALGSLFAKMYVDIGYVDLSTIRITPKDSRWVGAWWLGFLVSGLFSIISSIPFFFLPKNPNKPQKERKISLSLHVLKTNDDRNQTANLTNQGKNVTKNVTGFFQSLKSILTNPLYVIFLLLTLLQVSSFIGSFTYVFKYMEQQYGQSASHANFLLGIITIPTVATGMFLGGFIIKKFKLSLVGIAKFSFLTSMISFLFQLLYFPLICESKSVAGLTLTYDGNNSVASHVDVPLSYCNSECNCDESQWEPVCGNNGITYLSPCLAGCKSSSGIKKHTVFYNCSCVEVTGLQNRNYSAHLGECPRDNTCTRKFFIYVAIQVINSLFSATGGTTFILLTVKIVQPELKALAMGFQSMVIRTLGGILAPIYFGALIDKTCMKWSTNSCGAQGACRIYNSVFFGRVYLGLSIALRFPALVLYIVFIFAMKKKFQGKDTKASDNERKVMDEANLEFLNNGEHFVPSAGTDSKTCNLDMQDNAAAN

[10] = molecular target: T3, OCT1 (solute carrier family 22 member 1); assay: TP_TRANSPORTER: inhibition of Tetraethyl ammonium uptake (Quinidine:100 uM) in OCT1-expressing HeLa cells; parameters: scale not given: the % may be the effect or the level left; conditions: HeLa cells that express OCT1, probe tetraethyl ammonium, read-out: Activity
[11] = molecular target: T5, NTCP (hepatic sodium/bile acid cotransporter); assay: TP_TRANSPORTER: inhibition of Taurocholate uptake (Ursodeoxycholate:10 micro;M) in NTCP-expressing HeLa cells; parameters: scale not given: the % may be the effect or the level left; conditions: HeLa cells that express NTCP, probe taurocholate, read-out: Activity

With `CC[C@H](C)C(=O)O[C@H]1C[C@@H](C)C=C2C=C[C@H](C)[C@H](CC[C@@H]3C[C@@H](O)CC(=O)O3)[C@H]21` [LOVASTATIN] the activity at 10 µM [1] was 40%.
For `COc1ccc2c(c1)c(CC(=O)O)c(C)n2C(=O)c1ccc(Cl)cc1` [INDOMETHACIN], the Activity [2] was 20%.
For `CC[C@H](C)C[C@H](C)CCCCCCCCC(=O)N[C@H]1C[C@@H](O)[C@@H](NCCN)NC(=O)[C@@H]2[C@@H](O)CCN2C(=O)[C@H]([C@H](O)CCN)NC(=O)[C@H]([C@H](O)[C@@H](O)c2ccc(O)cc2)NC(=O)[C@@H]2C[C@@H](O)CN2C(=O)[C@H]([C@@H](C)O)NC1=O` [CASPOFUNGIN], the Activity [3] was “inhibitor [+]”, the activity at 100 µM [4] was 30% and the Activity [5] was 40%. The Activity [6] was “substrate [+]”, the Activity [7] was 5% and the activity at 100 µM [8] was 10%. For the same compound, the Activity [9] was “is not a substrate [-]”.
For `C=C[C@H]1C[N@@]2CC[C@H]1C[C@@H]2[C@@H](O)c1ccnc2ccc(OC)cc12` [QUINIDINE], the activity at 100 µM [10] was 20%.
Compound `C[C@H](CCC(=O)O)[C@H]1CC[C@H]2[C@@H]3[C@@H](O)C[C@@H]4C[C@H](O)CC[C@]4(C)[C@H]3CC[C@]12C` [URSODIOL] has an activity at 10 µM [11] of 30%.
